US20250346782A1 (W. L. Gore & Associates, Inc., priority 2022, published 2025)

Legend:
[1] = Nitric oxide (NO) release, Berkeley nitric oxide test strips (Evaluation Method Ai); format: physicochemical; details: 37° C.; for onset of release of NO from the coating / time at which steady state of NO release / nitrite anion concentration is reached: coating of compound alone on ePTFE film, PBS 10 mM with 100 μM EDTA; for delayed release of NO from the coating / time at which steady state concentration of nitrite anion is reached: coating with VDF-HFP fluoropolymer on ePTFE film, PBS
Protocol: The ability of a chemical entity as described herein, or surface having a coating comprising a chemical entity as described herein, to release nitric oxide (NO) is assessed using commercially available Berkely nitric oxide test strips (“Berkeley Life Nitric Oxide Saliva Test Strips”). Instructions for use for such test strips are provided with the packaging of the Berkely nitric oxide test strips, and additionally are described in WO2013/023217A1 and WO2014/039794A2 (incorporated herein by reference).The test strips provide a semi-quantitative measure of NO-derived analytes (primarily aqueous nitrite anion) rather than NO itself, because as is known to the art (Ignarro et al., 1993), aqueous NO has a very short half-life of only seconds, whereas aqueous nitrite anion (which derives from aqueous NO) has a half-life of several hours. As such, the nitrite anion is an appropriate surrogate to measure aqueous NO concentrations. The test strips comprise a nitrite detection pad containing dry chemical reagents responsive to different nitric oxide analytes, thereby, indicating concentrations of nitric oxide. The test strips are capable of detecting a concentration range of the nitric oxide analyte from 0 to 400 μmol/L nitrite with visibly distinct intensities of colorimetric sub-ranges expressed as a red colour (i.e., approximately 700 nm wavelength) of increasing intensity, qualitatively corresponding to micromolarity, specifically, but not limited to: 0 μM, 1 μM to 25 μM, 25 μM to 100 μM, 100 μM to 200 μM, 200 μM to 350 μM, and greater than 400 μM nitrite.
The surface having a coating to be assessed is submerged in a test solution of PBS, 10.0 mM, pH 7.4, with 100 μM EDTA. NO concentration is assessed at given timepoints by dipping the test strip in the solution. After 5 seconds, the test strip is removed, the strip is folded over and the sample pad is gently pressed against the test pad and held for 10 seconds. The ends are separated and compared to the Berkeley Test Nitric Oxide Scale, where the visibly distinct colorimetric sub-ranges comprise 6 subjective levels of intensity of red wavelengths (i.e., approximately 700 nm wavelength), corresponding to 0 μM, 25 μM, 100 μM, 200 μM, 350 μM, and 400 μM of nitric oxide-derived analytes, depending upon the qualitative intensity of red subjectively observed by a user. […] As shown in the Examples below, because each strip is assigned to one of the 6 subjective intensity levels (the sixth being no response), the resulting NO release plot has discrete jumps rather than a continuous curve, although in practice continuous release is expected to be occurring.
In separate experiments, chloroform solutions of S-nitrosothiol-containing compound 16 (Example 19) and compound 17 (Example 20) were deposited dropwise onto ePTFE films secured on embroidery hoops, allowing the solvents to evaporate as the solutions were deposited. Once the solvents had evaporated and the resulting coatings were dry, 10 mL of a PBS buffer solution comprising 10 mM phosphate buffered saline with 100 μM EDTA, was poured over the individual coated films in round, polyethylene containers with screw-cap lids and placed in a 37° C. water bath. The PBS buffer solutions were tested periodically for NO release according to Evaluation Method Ai. The NO release profile for the film coated with compound 16 is shown in FIG. 4, and for the film coated with compound 17, in FIG. 5.
In separate experiments, acetone solutions of 50 mg of the S-nitrosothiol-containing compound 16 (Example 19), compound 18 (Example 22), and copolymer 20 (Example 23) were added to individual mixtures of 200 mg of VDF-HFP fluoropolymer in 10 mL of acetone. The green mixtures were then poured onto 3-inch disks of ePTFE films secured on embroidery hoops, and the solvents evaporated under a stream of argon. […]

[2] = as above; format: physicochemical; details: PBS, 37° C.
[3] = Example 30, FIG. 12: silicone coating on ePTFE film
[4] = coating with VDF-HFP fluoropolymer on Pebax nylon film
[5] = coating with VDF-HFP fluoropolymer on ePE film
[6] = coating with VDF-HFP fluoropolymer on stainless steel foil

SMILES	onset of release of NO from the coating [1]	time at which steady state of NO release / nitrite anion concentration is reached [1] [days]	delayed release of NO from the coating [1] [days]	time at which steady state concentration of nitrite anion is reached [1] [days]	onset of release of NO from the coating [2, 3]	time at which steady state concentration of nitrite anion is reached [2, 3] [days]	delayed release of NO from the coating [2, 4] [days]	time at which steady state concentration of nitrite anion is reached [2, 4] [days]	delayed release of NO from the coating [2, 5] [days]	time at which steady state concentration of nitrite anion is reached [2, 5] [days]	delayed release of NO from the coating [2, 6] [days]	time at which steady state concentration of nitrite anion is reached [2, 6] [days]
CC(C)(SN=O)C(NC(=O)CCCCC(=O)NC(C(=O)NCc1ccccc1)C(C)(C)SN=O)C(=O)NCc1ccccc1 (stereo not shown) [Compound 16]	immediate release	5	2	8								
CC(C)(SN=O)C(NC(=O)CCCCC(=O)NC(C(=O)Nc1ccccc1)C(C)(C)SN=O)C(=O)Nc1ccccc1 (stereo not shown) [Compound 17, S,S′-((adipoylbis(azanediyl))bis(2-methyl-4-oxo-4-(phenylamino)butane-3,2-diyl)) dinitrothioite]	immediate release	7										
CC(C)(SN=O)C(NC(=O)c1cc(C(=O)NC(C(=O)NCc2ccccc2)C(C)(C)SN=O)cc(C(=O)NC(C(=O)NCc2ccccc2)C(C)(C)SN=O)c1)C(=O)NCc1ccccc1 (stereo not shown) [Compound 18, S,S′,S″-(((benzene-1,3,5-tricarbonyl)tris(azanediyl))tris(4-(benzylamino)-2-methyl-4-oxobutane-3,2-diyl)) trinitrothioite]			2	12	immediate first release	7	4	13	2	15	9	14
